In patent US11590116B2 (THERAVANCE BIOPHARMA R&D IP, LLC, priority 2019, dated 2023):

Columns and labels:
[1] = target: T1, recombinant human ALK5 (TGF-βR1) protein (Homo sapiens, UniProt P36897); assay: Biochemical ALK5 (TGF-βR1) assay to measure pKi (LANCE Ultra ULight kinase assay); conditions: apparent pKi from pIC50 by Cheng-Prusoff, read-out: ALK5 pKi (converted)
T1 construct: purchased Life Technologies PR9075A
T1 sequence (P36897 34-503): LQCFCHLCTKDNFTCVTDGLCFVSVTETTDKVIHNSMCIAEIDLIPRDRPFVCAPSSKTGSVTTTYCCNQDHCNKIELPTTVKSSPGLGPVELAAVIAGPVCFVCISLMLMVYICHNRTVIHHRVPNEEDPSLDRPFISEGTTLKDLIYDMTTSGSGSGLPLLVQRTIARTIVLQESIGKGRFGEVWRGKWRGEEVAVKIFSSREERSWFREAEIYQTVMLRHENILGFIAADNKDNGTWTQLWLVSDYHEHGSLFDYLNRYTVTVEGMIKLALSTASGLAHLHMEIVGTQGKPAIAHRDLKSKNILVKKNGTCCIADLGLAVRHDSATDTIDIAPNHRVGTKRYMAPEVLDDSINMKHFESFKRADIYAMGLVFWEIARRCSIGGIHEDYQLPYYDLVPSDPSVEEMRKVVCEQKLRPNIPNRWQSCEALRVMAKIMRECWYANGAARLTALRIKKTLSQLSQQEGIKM
Summary of the method: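 Compounds (10 μM to 25 pM) preincubated 60 minutes at room temperature with enzyme, then reaction run 60 minutes at 37° C with ATP added as 125 μM (5× final). Stopped with EDTA plus Eu-anti-phospho-Topoisomerase 2-alpha (Thr1342) antibody, TR-FRET read at 665 nm; pIC50 converted to pKi via Cheng-Prusoff.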

[2] = tested on: TGF-β-stimulated SMAD3 phosphorylation in BEAS-2B cells; assay: Cellular ALK5 potency assay, inhibition of TGF-β stimulated pSMAD3 formation in BEAS-2B cells; assay type: cell-based; conditions: Homo sapiens; inhibition of TGF-β stimulated pSMAD3 formation, BEAS-2B cells; read-out: BEAS2B pIC50 (converted)
Summary of the method: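 BEAS-2B human lung epithelial cells pre-treated 1 h at 37° C with compound in HBSS/25 mM HEPES/1% BSA, then stimulated 30 min with 10 ng/mL TGF-β (final). Lysates assayed for pSMAD3 by AlphaLISA; pIC50 from dose-dependent change versus stimulated untreated cells.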

| SMILES | Ki [1] | IC50 [2] |
| --- | --- | --- |
| Cc1cccc(-c2[nH]ncc2-c2ccc3ncc(C(=O)OCCN4CC[C@@H](N)C4)cc3c2)n1 [Compound 1211, 2-[(3R)-3-aminopyrrolidin-1-yl]ethyl 6-[5-(6-methyl-2-pyridyl)-1H-pyrazol-4-yl]quinoline-3-carboxylate] | 0.0398 to 0.316 nM | 25.1 to 158 nM |
| Cc1cccc(-c2n[nH]cc2-c2ccc3ncc(-c4ncn5c4NCC5)cc3n2)n1 [Compound 445, 7-(2,3-dihydro-1H-imidazo[1,5-a]imidazol-7-yl)-2-[3-(6-methyl-2-pyridyl)-1H-pyrazol-4-yl]-1,5-naphthyridine] | 0.0398 to 0.316 nM | 25.1 to 158 nM |
| Cc1cccc(-c2[nH]cnc2-c2ccc3ncc(-c4csc(C(=O)OC5CCNCC5)n4)cc3c2)n1 [Compound 1146, 4-piperidyl 4-[6-[5-(6-methyl-2-pyridyl)-1H-imidazol-4-yl]-3-quinolyl]thiazole-2-carboxylate] | < 0.0316 nM | 25.1 to 158 nM |
| Cc1cccc(-c2[nH]cnc2-c2ccc3ncc(N4CCN(C)C(CC(=O)O[C@@H]5CCNC5)C4)cc3c2)n1 (stereo partly drawn) [Compound 344, [(3R)-pyrrolidin-3-yl]2-[1-methyl-4-[6-[5-(6-methyl-2-pyridyl)-1H-imidazol-4-yl]-3-quinolyl]piperazin-2-yl]acetate] | 0.0398 to 0.316 nM | 200 to 1260 nM |
| Cc1cccc(-c2[nH]cnc2-c2ccc3ncc(-c4csc(C(=O)OCC5CNC5)n4)cc3c2)n1 [Compound 1148, azetidin-3-ylmethyl 4-[6-[5-(6-methyl-2-pyridyl)-1H-imidazol-4-yl]-3-quinolyl]thiazole-2-carboxylate] | 0.0398 to 0.316 nM | 25.1 to 158 nM |
| Cc1cccc(-c2n[nH]cc2-c2ccc3nccc(C(=O)NCCCCC(NC(=O)CN)C(=O)O)c3n2)n1 (racemic) [Compound 805, rac-(2S)-2-[(2-aminoacetyl)amino]-6-[[6-[3-(6-methyl-2-pyridyl)-1H-pyrazol-4-yl]-1,5-naphthyridine-4-carbonyl]amino]hexanoic acid] | 0.398 to 3.16 nM | 1580 to 10000 nM |
| Cc1cccc(-c2[nH]cnc2-c2ccc3ncc(NCCN4CCCC4(C)C)cc3n2)n1 [Compound 627, N-[2-(2,2-dimethylpyrrolidin-1-yl)ethyl]-6-[5-(6-methyl-2-pyridyl)-1H-imidazol-4-yl]-1,5-naphthyridin-3-amine] | 0.0398 to 0.316 nM | 25.1 to 158 nM |
| COC(=O)Cn1cc(-c2cnc3ccc(-c4c[nH]nc4-c4cccc(C)n4)nc3c2)cn1 [Compound 673, methyl 2-[4-[6-[3-(6-methyl-2-pyridyl)-1H-pyrazol-4-yl]-1,5-naphthyridin-3-yl]pyrazol-1-yl]acetate] | 0.0398 to 0.316 nM | 25.1 to 158 nM |
| Cc1cccc(-c2[nH]cnc2-c2ccc3ncc(-c4ccc(CN5CCNCC5)nc4)cc3c2)n1 [Compound 1026, 6-[5-(6-methyl-2-pyridyl)-1H-imidazol-4-yl]-3-[6-(piperazin-1-ylmethyl)-3-pyridyl]quinoline] | 0.0398 to 0.316 nM | 25.1 to 158 nM |
| Cc1nc(-c2n[nH]cc2-c2ccc3ncc(-c4nnn5c4NCCC5)cc3n2)ccc1F [Compound 263, 2-[3-(5-fluoro-6-methyl-2-pyridyl)-1H-pyrazol-4-yl]-7-(4,5,6,7-tetrahydrotriazolo[1,5-a]pyrimidin-3-yl)-1,5-naphthyridine] | 0.0398 to 0.316 nM | 25.1 to 158 nM |
| Cc1cccc(-c2n[nH]cc2-c2ccc3ncc(Br)cc3n2)n1 [Compound 323, 7-bromo-2-[3-(6-methyl-2-pyridyl)-1H-pyrazol-4-yl]-1,5-naphthyridine] | 0.0398 to 0.316 nM | < 20 nM |
| Cc1cccc(-c2[nH]cnc2-c2ccc3ncc(-c4csc(C(=O)OCCC5CNC5)c4)cc3c2)n1 [Compound 1169, 2-(azetidin-3-yl)ethyl 4-[6-[5-(6-methyl-2-pyridyl)-1H-imidazol-4-yl]-3-quinolyl]thiophene-2-carboxylate] | < 0.0316 nM | 25.1 to 158 nM |
| Cc1cccc(-c2n[nH]cc2-c2ccc3ncc(Nc4ccc(N5CCNCC5)cc4)cc3c2)n1 [Compound 488, 6-[3-(6-methyl-2-pyridyl)-1H-pyrazol-4-yl]-N-(4-piperazin-1-ylphenyl)quinolin-3-amine] | 0.0398 to 0.316 nM | 25.1 to 158 nM |
| Cc1cccc(-c2[nH]cnc2-c2ccc3ncc(-c4csc(C(=O)OCCN5CCNCC5)n4)cc3c2)n1 [Compound 1096, 2-piperazin-1-ylethyl 4-[6-[5-(6-methyl-2-pyridyl)-1H-imidazol-4-yl]-3-quinolyl]thiazole-2-carboxylate] | 0.0398 to 0.316 nM | 25.1 to 158 nM |
| Cc1cccc(-c2[nH]ncc2-c2ccc3ncc(C(=O)OCCN4CCN(C(C)C)CC4)cc3n2)n1 [Compound 389, 2-(4-isopropylpiperazin-1-yl)ethyl 6-[5-(6-methyl-2-pyridyl)-1H-pyrazol-4-yl]-1,5-naphthyridine-3-carboxylate] | 0.0398 to 0.316 nM | 25.1 to 158 nM |
| Cc1cccc(-c2n[nH]cc2-c2ccc3ncc(CNCCCN4CCOCC4)cc3n2)n1 [Compound 155, N-[[6-[3-(6-methyl-2-pyridyl)-1H-pyrazol-4-yl]-1,5-naphthyridin-3-yl]methyl]-3-morpholino-propan-1-amine] | 0.398 to 3.16 nM | 25.1 to 158 nM |
| Cc1cccc(-c2[nH]cnc2-c2ccc3ncc(-c4cccc(NC5CCNCC5)n4)cc3c2)n1 [Compound 450, 6-[6-[5-(6-methyl-2-pyridyl)-1H-imidazol-4-yl]-3-quinolyl]-N-(4-piperidyl)pyridin-2-amine] | 0.0398 to 0.316 nM | 25.1 to 158 nM |
| Cc1cccc(-c2n[nH]cc2-c2ccc3nccc(N4CC(N5CCOCC5)C4)c3n2)n1 [Compound 846, 4-[1-[6-[3-(6-methyl-2-pyridyl)-1H-pyrazol-4-yl]-1,5-naphthyridin-4-yl]azetidin-3-yl]morpholine] | 0.398 to 3.16 nM | 200 to 1260 nM |
| CNCCn1ccc(-c2cnc3ccc(-c4c[nH]nc4-c4ccc(F)c(C)n4)nc3c2)n1 [Compound 108, 2-[3-[6-[3-(5-fluoro-6-methyl-2-pyridyl)-1H-pyrazol-4-yl]-1,5-naphthyridin-3-yl]pyrazol-1-yl]-N-methyl-ethanamine] | 0.0398 to 0.316 nM | 25.1 to 158 nM |
| Cc1cccc(-c2n[nH]cc2-c2ccc3ncc(NCCN4CCN(C(C)C)CC4)cc3n2)n1 [Compound 478, N-[2-(4-isopropylpiperazin-1-yl)ethyl]-6-[3-(6-methyl-2-pyridyl)-1H-pyrazol-4-yl]-1,5-naphthyridin-3-amine] | < 0.0316 nM | 25.1 to 158 nM |
| Cc1cccc(-c2[nH]cnc2-c2ccc3ncc(-c4nc(C(=O)O[C@@H]5CCNC5)cs4)cc3c2)n1 [Compound 743, [(3R)-pyrrolidin-3-yl]2-[6-[5-(6-methyl-2-pyridyl)-1H-imidazol-4-yl]-3-quinolyl]thiazole-4-carboxylate] | 0.0398 to 0.316 nM | 25.1 to 158 nM |
| Cc1cccc(-c2[nH]cnc2-c2ccc3ncc(-c4ccc(C(=O)OC5CCNCC5)cn4)cc3c2)n1 [Compound 1094, 4-piperidyl 6-[6-[5-(6-methyl-2-pyridyl)-1H-imidazol-4-yl]-3-quinolyl]pyridine-3-carboxylate] | < 0.0316 nM | 25.1 to 158 nM |
| Cc1cccc(-c2[nH]cnc2-c2ccc3ncc(C(=O)OCCC4CNC4)cc3c2)n1 [Compound 761, 2-(azetidin-3-yl)ethyl 6-[5-(6-methyl-2-pyridyl)-1H-imidazol-4-yl]quinoline-3-carboxylate] | 0.0398 to 0.316 nM | 200 to 1260 nM |
